In experiment [1] the test system is B. subtilis 168. Kind of experiment: fitness (endpoint OD595 vs no drug) (fraction); higher = more growth. In short, it runs like this: (§1)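 At 37 °C, bacteria in TSB, LB Lennox or CY were grown in 384-well plates from a starting OD595 of 0.01. OD595 was measured every 30 min for 14 h, with the first reading used as background. Fitness is the optical density at the switch to stationary phase as a fraction of the robust mean of no-drug control wells, capped at 1.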

In experiment [2] the test system is S. aureus Newman. The description is as above. In outline: as §1
For experiment [3], the system named is S. aureus DSM 20231. Described as above. In short, it runs like this:
as §1

Experiment [4] deals with S. aureus DSM 20231. Kind of experiment: Bliss interaction score (quartile over a dose matrix) (fitness difference); higher = more antagonism (negative = synergy). In outline:
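Quartiles of the Bliss score were taken over technical, biological and donor/recipient replicates. That score is observed fitness minus the product of the single-drug fitness values, which were inferred from combination data. Fitness itself is OD595 at entry into stationary phase divided by the plate's robust no-drug mean, with a cap at 1.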

[5] abbreviates: first compound 0.078 µg/mL, partner 0.375 µg/mL.
Setting [6] is: first compound 0.078 µg/mL, partner 0.75 µg/mL.
Where [7] appears, read: first compound 0.078 µg/mL, partner 1.5 µg/mL.
Where [8] appears, read: first compound 0.156 µg/mL, partner 0.375 µg/mL.
Where [9] appears, read: first compound 0.156 µg/mL, partner 0.75 µg/mL.
The mark [10] stands for this setting: first compound 0.156 µg/mL, partner 1.5 µg/mL.
[11] abbreviates: first compound 0.312 µg/mL, partner 0.375 µg/mL.
The mark [12] stands for this setting: first compound 0.312 µg/mL, partner 0.75 µg/mL.
Setting [13] is: first compound 0.312 µg/mL, partner 1.5 µg/mL.

SMILES strings stand for the structures.
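Throughout, for Bliss interaction score (quartile over a dose matrix): first quartile when negative (synergy) and third quartile when positive (antagonism).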

As to `CO/N=C(\C(=O)N[C@@H]1C(=O)N2C(C(=O)O)=C(COC(C)=O)CS[C@H]12)c1csc(N)n1` [Cefotaxime] + N[C@@H]1CONC1=O [Cycloserine D], the fitness in experiment [1] (first compound 0.00775 µg/mL, partner 0.125 µg/mL, one replicate) is 0.876; in experiment [1] (first compound 0.00775 µg/mL, partner 0.25 µg/mL, one replicate) it was 0.888; in experiment [1] (first compound 0.00775 µg/mL, partner 0.5 µg/mL, one replicate) it was 0.802; in experiment [1] (first compound 0.0155 µg/mL, partner 0.125 µg/mL, one replicate), 0.666; in experiment [1] (first compound 0.0155 µg/mL, partner 0.25 µg/mL, one replicate), 0.756; in experiment [1] (first compound 0.0155 µg/mL, partner 0.5 µg/mL, one replicate) it was 0.733. The fitness in experiment [1] (first compound 0.031 µg/mL, partner 0.125 µg/mL, one replicate) was found to be 0.554; in experiment [1] (first compound 0.031 µg/mL, partner 0.25 µg/mL, one replicate) it was 0.561; in experiment [1] (first compound 0.031 µg/mL, partner 0.5 µg/mL, one replicate), 0.566; in experiment [1] (first compound 0.0625 µg/mL, partner 0.125 µg/mL, one replicate), 0.498; in experiment [1] (first compound 0.0625 µg/mL, partner 0.25 µg/mL, one replicate), 0.524; in experiment [1] (first compound 0.0625 µg/mL, partner 0.5 µg/mL, one replicate), 0.477. The fitness in experiment [1] (first compound 0.125 µg/mL, partner 0.125 µg/mL, one replicate) is 0.353; in experiment [1] (first compound 0.125 µg/mL, partner 0.25 µg/mL, one replicate) it was 0.401; in experiment [1] (first compound 0.125 µg/mL, partner 0.5 µg/mL, one replicate) it was 0.363; in experiment [1] (first compound 0.25 µg/mL, partner 0.125 µg/mL, one replicate), 0.296; in experiment [1] (first compound 0.25 µg/mL, partner 0.25 µg/mL, one replicate), 0.31; in experiment [1] (first compound 0.25 µg/mL, partner 0.5 µg/mL, one replicate), 0.267. The fitness worked out at 0.333 in experiment [1] (first compound 0.5 µg/mL, partner 0.125 µg/mL); 0.28 in experiment [1] (first compound 0.5 µg/mL, partner 0.25 µg/mL); 0.162 in experiment [1] (first compound 1 µg/mL, partner 0.125 µg/mL); 0.169 in experiment [1] (first compound 1 µg/mL, partner 0.25 µg/mL); 0.162 in experiment [1] (first compound 1 µg/mL, partner 0.5 µg/mL); 0.16 in experiment [1] (first compound 2 µg/mL, partner 0.125 µg/mL). The fitness in experiment [1] (first compound 2 µg/mL, partner 0.25 µg/mL) was 0.182; in experiment [1] (first compound 2 µg/mL, partner 0.5 µg/mL), 0.15; in experiment [2] (setting [5]), 0.736; in experiment [2] (setting [6]), 0.828; in experiment [2] (setting [7]), 0.785; in experiment [2] (setting [8]) it was 0.601. Further, the fitness in experiment [2] (setting [9]) was 0.604; in experiment [2] (setting [10]), 0.629; in experiment [2] (setting [11]), 0.345; in experiment [2] (setting [12]), 0.326; in experiment [2] (setting [13]) it was 0.305; in experiment [2] (first compound 0.625 µg/mL, partner 0.375 µg/mL), 0.186. The fitness in experiment [2] (first compound 0.625 µg/mL, partner 0.75 µg/mL) came out at 0.121; in experiment [2] (first compound 0.625 µg/mL, partner 1.5 µg/mL) it was 0.0813; in experiment [2] (first compound 1.25 µg/mL, partner 0.375 µg/mL), 0.0332; in experiment [2] (first compound 1.25 µg/mL, partner 0.75 µg/mL) it was 0.0383; in experiment [2] (first compound 1.25 µg/mL, partner 1.5 µg/mL) it was 0.0209; in experiment [2] (first compound 2.5 µg/mL, partner 0.375 µg/mL) it was 0.0595. In addition, the fitness in experiment [2] (first compound 2.5 µg/mL, partner 0.75 µg/mL) was determined as 0.0506; in experiment [2] (first compound 2.5 µg/mL, partner 1.5 µg/mL), 0.0484; in experiment [3] (first compound 0.039 µg/mL, partner 0.375 µg/mL), 0.822; in experiment [3] (first compound 0.039 µg/mL, partner 0.75 µg/mL) it was 0.822; in experiment [3] (first compound 0.039 µg/mL, partner 1.5 µg/mL), 0.835; in experiment [3] (setting [5]), 0.789. In addition, the fitness was 0.853 in experiment [3] (setting [6]); 0.748 in experiment [3] (setting [7]); 0.736 in experiment [3] (setting [8]); 0.772 in experiment [3] (setting [9]); 0.696 in experiment [3] (setting [10]); 0.652 in experiment [3] (setting [11]). The figures for the fitness in experiment [3] (setting [12]) and in experiment [3] (setting [13]) were 0.638 and 0.584, respectively.

With `CO/N=C(\C(=O)N[C@@H]1C(=O)N2C(C(=O)O)=C(COC(C)=O)CS[C@H]12)c1csc(N)n1` [Cefotaxime] + Nc1ccc(O)c(C(=O)O)c1 [Mesalamine], the Bliss interaction score in experiment [4] came out at 0.16.

In the case of `CO/N=C(\C(=O)N[C@@H]1C(=O)N2C(C(=O)O)=C(COC(C)=O)CS[C@H]12)c1csc(N)n1` [Cefotaxime] + O=c1[nH]cc(F)c(=O)[nH]1 [Fluorouracil], in experiment [4], the Bliss interaction score was -0.114.

Turning to `CO/N=C(\C(=O)N[C@@H]1C(=O)N2C(C(=O)O)=C(COC(N)=O)CS[C@H]12)c1ccco1` [Cefuroxime] + CCCSc1nc(N[C@@H]2C[C@H]2c2ccc(F)c(F)c2)c2nnn([C@@H]3C[C@H](OCCO)[C@@H](O)[C@H]3O)c2n1 [Ticagrelor], the Bliss interaction score in experiment [4] is 0.137.

For the molecule `COCCOC(=O)C1=C(C)NC(C)=C(C(=O)OC/C=C/c2ccccc2)C1c1cccc([N+](=O)[O-])c1` (stereo not given) [Cilnidipine] + CC1(C)S[C@@H]2[C@H](NC(=O)Cc3ccccc3)C(=O)N2[C@H]1C(=O)O [PenicillinG], the Bliss interaction score in experiment [4] is -0.229.

Turning to `COCCOC(=O)C1=C(C)NC(C)=C(C(=O)OC/C=C/c2ccccc2)C1c1cccc([N+](=O)[O-])c1` (stereo not given) [Cilnidipine] + CC(=O)NC[C@H]1CN(c2ccc(N3CCOCC3)c(F)c2)C(=O)O1 [Linezolid], in experiment [4], the Bliss interaction score was -0.254.

Regarding `COCCOC(=O)C1=C(C)NC(C)=C(C(=O)OC/C=C/c2ccccc2)C1c1cccc([N+](=O)[O-])c1` (stereo not given) [Cilnidipine] + CCC(C)C1C(=O)NC(=C)C(=O)NC(C(=O)NC(CSCC(C(=O)N1)NC(=O)/C(=C/C)/NC(=O)C(C(C)CC)N)C(=O)NC2C(SCC(NC(=O)CNC(=O)C3CCCN3C2=O)C(=O)NC(CCCCN)C(=O)NC4C(SCC(NC(=O)CNC(=O)C(NC(=O)C(NC(=O)C(NC(=O)CNC4=O)C)CC(C)C)CCSC)C(=O)NC(CC(=O)N)C(=O)NC(CCSC)C(=O)NC(CCCCN)C(=O)NC5C(SCC6C(=O)NC(C(=O)NC(CSC(C(C(=O)N6)NC(=O)C(NC5=O)C)C)C(=O)NC(CO)C(=O)NC(C(C)CC)C(=O)NC(CC7=CN=CN7)C(=O)NC(C(C)C)C(=O)NC(=C)C(=O)NC(CCCCN)C(=O)O)CC8=CN=CN8)C)C)C)CC(C)C [Nisin], in experiment [4] (main component drawn), the Bliss interaction score turned out to be 0.156.

As to `COCCOC(=O)C1=C(C)NC(C)=C(C(=O)OC/C=C/c2ccccc2)C1c1cccc([N+](=O)[O-])c1` (stereo not given) [Cilnidipine] + CCC[C@@H]1C[C@@H](C(=O)N[C@@H]([C@H]2O[C@H](SC)[C@H](O)[C@@H](O)[C@H]2O)[C@H](C)Cl)N(C)C1 [Clindamycin], the Bliss interaction score in experiment [4] is -0.221.

Consider `COCCOC(=O)C1=C(C)NC(C)=C(C(=O)OC/C=C/c2ccccc2)C1c1cccc([N+](=O)[O-])c1` (stereo not given) [Cilnidipine] + CC[C@H]1OC(=O)[C@H](C)[C@@H](O[C@H]2C[C@@](C)(OC)[C@@H](O)[C@H](C)O2)[C@H](C)[C@@H](O[C@@H]2O[C@H](C)C[C@H](N(C)C)[C@H]2O)[C@](C)(OC)C[C@@H](C)C(=O)[C@H](C)[C@@H](O)[C@]1(C)O [Clarithromycin], for which the Bliss interaction score in experiment [4] is -0.196.

`COCCOC(=O)C1=C(C)NC(C)=C(C(=O)OC/C=C/c2ccccc2)C1c1cccc([N+](=O)[O-])c1` (stereo not given) [Cilnidipine] + CN(C)C(=O)C(CCN1CCC(O)(c2ccc(Cl)cc2)CC1)(c1ccccc1)c1ccccc1 [Loperamide]: the Bliss interaction score in experiment [4] is -0.32.

The values above are taken from the supplement of paper PMC10627819.
